Test results as given in the supplement of paper PMC11061612.

Key:
[1] = compound: CN(C)CCCOc1ccc(-c2ccc3ncc4c(c3c2)n(C2CCOCC2)c(=O)n4C)cn1 [AZD0156]; conditions: max 3 µM
How it was run: (§1)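 Cancer cell lines were plated in 1536-well plates in 7.5 μl of DMEM/F12 or RPMI with 10% FBS and kept 24 hours at 37°C and 5% CO2 before 72 hours of dosing, with final DMSO typically 0.2%. CellTiter-Glo 2.0 luminescence measured viability, scaled between blank-well and DMSO-well means. Dose responses were fitted to a two-parameter logistic curve with a non-linear mixed effects model. This fit gives the single-agent IC50.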

[2] = compound: CS(=O)(=O)CCNCc1ccc(-c2ccc3ncnc(Nc4ccc(OCc5cccc(F)c5)c(Cl)c4)c3c2)o1 [Lapatinib]; conditions: max 10 µM
How it was run: as §1

[3] = compound: C[C@@H](c1ccc2nccn2c1)n1nnc2ncc(-c3cnn(C)c3)nc21 [Savolitinib]; conditions: max 1 µM
How it was run: as §1

[4] = compound: CC1=CN2[C@@H](C1)C=NC3=CC(=C(C=C3C2=O)OC)OCCCCCOC4=C(C=C5C(=C4)N=C[C@@H]6CC(=CN6C5=O)C)OC [SG3199]; conditions: max 0.001 µM
How it was run: as §1

[5] = compound: C[C@@H](Oc1cc(-c2cnn(C3CCNCC3)c2)cnc1N)c1c(Cl)ccc(F)c1Cl [Crizotinib]; conditions: max 10 µM
How it was run: as §1

[6] = compound: CC(=O)c1c(C)c2cnc(Nc3ccc(N4CCNCC4)cn3)nc2n(C2CCCC2)c1=O [Palbociclib]; conditions: max 10 µM
How it was run: as §1

[7] = compound: COc1cccc(OCCCN)c1-c1cc(Nc2cnc(C#N)cn2)n[nH]1 [Prexasertib]; conditions: max 1 µM
How it was run: as §1

[8] = compound: C1CN(CCC1(C(=O)N[C@@H](CCO)C2=CC=C(C=C2)Cl)N)C3=NC=NC4=C3C=CN4 [Capivasertib]; conditions: max 10 µM
How it was run: as §1

[9] = compound: Cc1nc(-c2cn3c(n2)-c2ccc(-c4cnn(C(C)(C)C(N)=O)c4)cc2OCC3)n(C(C)C)n1 [Taselisib]; conditions: max 10 µM
How it was run: as §1

[10] = compound: Cc1c2c(nn1C)CSCc1cc(n(C)n1)CSc1cc(c3ccccc3c1)OCCCc1c(C(=O)O)n(C)c3c-2c(Cl)ccc13 [AZD5991]; conditions: max 1 µM
How it was run: as §1

[11] = compound: C[C@@H](Nc1cc(F)cc(F)c1)c1cc(C(=O)N(C)C)cc2c(=O)cc(N3CCOCC3)oc12 [AZD8186]; conditions: max 3 µM
How it was run: as §1

[12] = compound: CC(=O)Nc1cccc(-n2c(=O)n(C3CC3)c(=O)c3c(Nc4ccc(I)cc4F)n(C)c(=O)c(C)c32)c1 [Trametinib]; conditions: max 1 µM
How it was run: as §1

[13] = compound: CCN(CCO)CCCOc1ccc2c(Nc3cc(CC(=O)Nc4cccc(F)c4)[nH]n3)ncnc2c1 [AZD2811]; conditions: max 1 µM
How it was run: as §1

[14] = compound: CC1(C)CCC(CN2CCN(c3ccc(C(=O)NS(=O)(=O)c4ccc(NCC5CCOCC5)c([N+](=O)[O-])c4)c(Oc4cnc5[nH]ccc5c4)c3)CC2)=C(c2ccc(Cl)cc2)C1 [Venetoclax]; conditions: max 1 µM
How it was run: as §1

[15] = compound: COc1cccc2c1C(=O)c1c(O)c3c(c(O)c1C2=O)C[C@@](O)(C(=O)CO)C[C@@H]3O[C@H]1C[C@H](N)[C@H](O)[C@H](C)O1 [Doxorubicin]; conditions: max 1 µM
How it was run: as §1

[16] = compound: Cn1cnc2c(F)c(Nc3ccc(Br)cc3Cl)c(C(=O)NOCCO)cc21 [Selumetinib]; conditions: max 10 µM
How it was run: as §1

[17] = compound: COc1cc2ncnc(Nc3ccc(F)c(Cl)c3)c2cc1OCCCN1CCOCC1 [Gefitinib]; conditions: max 10 µM
How it was run: as §1

[18] = compound: Cc1cc2ncnn2cc1Nc1ncc2c(n1)n(C1CCOCC1)c(=O)n2C [AZD7648]; conditions: max 10 µM
How it was run: as §1

[19] = compound: COc1nnc2ccc(N3CCC(c4ccc(OCCN5CCN(C)C(=O)[C@H]5C)cc4)CC3)nn12 [AZD5153]; conditions: max 1 µM
How it was run: as §1

[20] = compound: CN(CC[C@H](CSC1=CC=CC=C1)NC2=C(C=C(C=C2)S(=O)(=O)NC(=O)C3=CC=C(C=C3)N4CCC(CC4)[C@H](C5=CC=CC=C5C6=CC=C(C=C6)Cl)O)S(=O)(=O)C(F)(F)F)CCO [AZD4320]; conditions: max 1 µM
How it was run: as §1

[21] = compound: COc1cc(Nc2ncc3c(n2)-c2ccc(Cl)cc2C(c2c(F)cccc2OC)=NC3)ccc1C(=O)O [Alisertib]; conditions: max 10 µM
How it was run: as §1

[22] = compound: CCc1c2c(nc3ccc(O)cc13)-c1cc3c(c(=O)n1C2)COC(=O)[C@]3(O)CC [SN-38]; conditions: max 0.3 µM
How it was run: as §1

[23] = compound: C[C@@H]1COCCN1C2=NC(=NC(=C2)C3(CC3)[S@](=N)(=O)C)C4=C5C=CNC5=NC=C4 [AZD6738]; conditions: max 10 µM
How it was run: as §1

[24] = compound: C=CCn1c(=O)c2cnc(Nc3ccc(N4CCN(C)CC4)cc3)nc2n1-c1cccc(C(C)(C)O)n1 [AZD1775]; conditions: max 3 µM
How it was run: as §1

[25] = compound: CC1=C(C(=CC=C1)Cl)NC(=O)C2=CN=C(S2)NC3=CC(=NC(=N3)C)N4CCN(CC4)CCO [Dasatinib]; conditions: max 2 µM
How it was run: as §1

[26] = compound: CC(C)n1c(=O)n(C)c2cnc3cc(F)c(-c4ccc(OCCCN5CCCCC5)nc4)cc3c21 [AZD1390]; conditions: max 0.3 µM
How it was run: as §1

[27] = compound: O=C(c1cc(Cc2n[nH]c(=O)c3ccccc23)ccc1F)N1CCN(C(=O)C2CC2)CC1 [Olaparib]; conditions: max 10 µM
How it was run: as §1

| Cell Line | IC50, cell viability 72 h [1] [µM] | IC50, cell viability 72 h [2] [µM] | IC50, cell viability 72 h [3] [µM] | IC50, cell viability 72 h [4] [µM] | IC50, cell viability 72 h [5] [µM] | IC50, cell viability 72 h [6] [µM] | IC50, cell viability 72 h [7] [µM] | IC50, cell viability 72 h [8] [µM] | IC50, cell viability 72 h [9] [µM] | IC50, cell viability 72 h [10] [µM] | IC50, cell viability 72 h [11] [µM] | IC50, cell viability 72 h [12] [µM] | IC50, cell viability 72 h [13] [µM] | IC50, cell viability 72 h [14] [µM] | IC50, cell viability 72 h [15] [µM] | IC50, cell viability 72 h [16] [µM] | IC50, cell viability 72 h [17] [µM] | IC50, cell viability 72 h [18] [µM] | IC50, cell viability 72 h [19] [µM] | IC50, cell viability 72 h [20] [µM] | IC50, cell viability 72 h [21] [µM] | IC50, cell viability 72 h [22] [µM] | IC50, cell viability 72 h [23] [µM] | IC50, cell viability 72 h [24] [µM] | IC50, cell viability 72 h [25] [µM] | IC50, cell viability 72 h [26] [µM] | IC50, cell viability 72 h [27] [µM] |
| --- | --- | --- | --- | --- | --- | --- | --- | --- | --- | --- | --- | --- | --- | --- | --- | --- | --- | --- | --- | --- | --- | --- | --- | --- | --- | --- | --- |
| COR-L23 (Non-Small Cell Lung Carcinoma) | > 3 | > 10 | > 1 | > 0.001 | > 10 | > 10 | 0.216 | > 10 | 5.74 | > 1 | > 3 | > 1 | > 1 | > 1 | > 1 | > 10 | > 10 | > 10 | > 1 | > 1 | > 10 | 0.131 | > 10 | 0.591 | > 2 | > 0.3 | > 10 |
| CTV-1 (T-Lymphoblastic Leukemia) | > 3 | > 10 | > 1 | > 0.001 | 0.371 | 1.47 | 0.00728 | 5.88 | 3.17 | > 1 | > 3 | > 1 | > 1 | > 1 | 0.0456 | > 10 | 4.93 | > 10 | 0.0575 | > 1 | 0.199 | 0.00352 | 3.92 | 0.28 | < 0.002 | > 0.3 | > 10 |
| DMS-273 (Small Cell Lung Carcinoma) | > 3 | 7.43 | > 1 | > 0.001 | 3.93 | > 10 | 0.0324 | 0.916 | 5.58 | 0.201 | 1.48 | > 1 | 0.114 | > 1 | 0.458 | > 10 | > 10 | > 10 | 0.117 | > 1 | 1.06 | 0.0189 | 3.45 | 1.17 | > 2 | > 0.3 | > 10 |
| EM-2 (Chronic Myelogenous Leukemia) | > 3 | > 10 | > 1 | > 0.001 | 0.859 | > 10 | 0.00551 | > 10 | > 10 | > 1 | > 3 | 0.35 | 0.0219 | > 1 | 0.104 | 5.55 | > 10 | > 10 | 0.0616 | 0.0342 | 1.06 | 0.00512 | 1.63 | 0.295 | 0.00228 | > 0.3 | > 10 |
